Results on eight compounds are retold here after ChEMBL document CHEMBL3137667, “[Drug-induced liver injury; fourteenth updated edition of the bibliographic database of liver injuries and related drugs]” (Gastroenterol Clin Biol, 2004).

A short description of data set [1]: Highest frequency of moderate liver toxicity observed during clinical trials, expressed as a percentage. [column '% BIOL' in source]. The following applies: human.
For data set [2] the following is noted: human.
For data set [3] the following is noted: human. The source holds these as a separate data set.
The conditions of data set [4]: human. This is another data set of the same source.
The conditions of data set [5]: human, serum.
The conditions of data set [6]: human, serum. This is another data set of the same source.
The conditions of data set [7]: human. This is another data set of the same source.
The conditions of data set [8]: human. This is another data set of the same source.
For data set [9] the following is noted: human, serum, 4383 h.
For data set [10] the following is noted: human. This is another data set of the same source.
The conditions of data set [11]: human. This is another data set of the same source.
The conditions of data set [12]: human. This is another data set of the same source.
For data set [13] the following is noted: human. This is another data set of the same source.
Data set [14] is described as follows: Highest frequency of acute liver toxicity observed during clinical trials, expressed as a percentage. [column '% AIGUE' in source]. The settings on record: human.
Data set [15] can be described thus: Times to onset, minimal and maximal, observed in the indexed observations. [column 'DELAI' in source]. The settings on record: human.
Data set [16] can be described thus: Presence of at least one case with successful reintroduction. [column 'REINT' in source]. The following applies: human.
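Wherever Hepatotoxicity (association with vascular disease) is given: count of indexed literature references reporting vascular liver injury in humans, e.g. peliosis hepatitis, hepatic veno-occlusive disease or Budd-Chiari syndrome.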
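Wherever Hepatotoxicity (benign tumour) is given: value is a count of indexed literature references citing a benign tumour confirmed by histopathology.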
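Wherever Hepatotoxicity (choleostasis) is given: human cholestatic liver injury, shown by histopathology or by peak ALT or AST elevation over alkaline phosphatase ratio below 2, value counts indexed literature reports.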
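Wherever Hepatotoxicity (chronic liver disease) is given: chronic liver injury confirmed by histopathology or persistently raised serum aminotransferase activity beyond 6 months, value given as the count of indexed literature references.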
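Wherever Hepatotoxicity (cirrhosis) is given: value is a count of indexed literature references reporting cirrhosis confirmed by histopathology.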
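Wherever Hepatotoxicity (cytolytic) is given: human cytolytic liver injury, shown by histopathology or by a ratio above 5 of peak ALT or AST elevation to alkaline phosphatase elevation, value counts indexed references.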
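Wherever Hepatotoxicity (granulomatous hepatitis) is given: value is a count of indexed literature references reporting granulomatous liver disease confirmed by histopathology.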
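Wherever Hepatotoxicity (malignant tumour) is given: malignant tumour confirmed by histopathology, value gives the count of indexed literature references reporting it.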
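Wherever Hepatotoxicity (severe hepatitis) is given: human clinical data: severe hepatitis, meaning potentially life-threatening liver failure or clinically observed cases, the value counts how many indexed literature references report it.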
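Wherever Hepatotoxicity (steatosis) is given: steatosis confirmed by histopathology, value is the count of indexed references.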

`COc1c2occc2c(OC)c2c(=O)cc(C)oc12` [KHELLIN]: the “Hepatotoxicity (moderate)” value in data set [1] is 0%; in [5], 1. In data set [2], the “Hepatotoxicity (choleostasis)” value was found to be 0. Besides, the “Hepatotoxicity (steatosis)” value in data set [3] is 0. For the same compound, the “Hepatotoxicity (cirrhosis)” value in data set [4] stood at 0. The “Hepatotoxicity (acute)” value came to 1 in data set [6] and 0% in data set [14]. In addition, the “Hepatotoxicity (granulomatous hepatitis)” value in data set [7] was 0. In addition, the “Hepatotoxicity (benign tumour)” value in data set [8] amounted to 0. Further, in data set [9], the “Hepatotoxicity (chronic liver disease)” value is listed as 0. In addition, in data set [10], the “Hepatotoxicity (cytolytic)” value is 1. For the same compound, the “Hepatotoxicity (severe hepatitis)” value in data set [11] came to 0. The “Hepatotoxicity (malignant tumour)” value in [12] is listed as 0. Also, in data set [13], the “Hepatotoxicity (association with vascular disease)” value was found to be 0. In addition, in [15], the “Hepatotoxicity (time to onset)” value worked out at 5 weeks. Also, the “Hepatotoxicity (successful reintroduction)” value in data set [16] is listed as “yes”.

In the case of `Nc1nc(N)c2nc(-c3ccccc3)c(N)nc2n1`, the “Hepatotoxicity (moderate)” value turned out to be 0% in [1] and 1 in data set [5]. The “Hepatotoxicity (choleostasis)” value in data set [2] is recorded as 0. Besides, the “Hepatotoxicity (steatosis)” value in data set [3] is recorded as 0. Moreover, in data set [4], the “Hepatotoxicity (cirrhosis)” value was 0. The “Hepatotoxicity (acute)” value in data set [6] was found to be 1; in data set [14], 0%. Further, the “Hepatotoxicity (granulomatous hepatitis)” value in data set [7] was 0. The “Hepatotoxicity (benign tumour)” value in data set [8] turned out to be 0. The “Hepatotoxicity (chronic liver disease)” value in data set [9] was determined as 0. In addition, in data set [10], the “Hepatotoxicity (cytolytic)” value is listed as 1. In [11], the “Hepatotoxicity (severe hepatitis)” value worked out at 1. In addition, the “Hepatotoxicity (malignant tumour)” value in data set [12] was 0. In addition, in data set [13], the “Hepatotoxicity (association with vascular disease)” value came out at 0. In addition, the “Hepatotoxicity (time to onset)” value in data set [15] is on record as 2 days - 3 weeks. Besides, the “Hepatotoxicity (successful reintroduction)” value in [16] is “yes”.

For the compound `CCCN(CCC)S(=O)(=O)c1ccc(C(=O)O)cc1` [PROBENECID], the “Hepatotoxicity (moderate)” value in data set [1] is listed as 0%; in data set [5] it was 0. Further, in [2], the “Hepatotoxicity (choleostasis)” value is 0. Also, in [3], the “Hepatotoxicity (steatosis)” value is 0. Moreover, in [4], the “Hepatotoxicity (cirrhosis)” value is reported as 0. Besides, the “Hepatotoxicity (acute)” value in data set [6] is given as 1; in [14], 0%. Also, in data set [7], the “Hepatotoxicity (granulomatous hepatitis)” value was 1. For the same compound, the “Hepatotoxicity (benign tumour)” value in [8] is 0. Moreover, the “Hepatotoxicity (chronic liver disease)” value in data set [9] worked out at 0. The “Hepatotoxicity (cytolytic)” value in data set [10] is 1. The “Hepatotoxicity (severe hepatitis)” value in data set [11] was determined as 1. Besides, the “Hepatotoxicity (malignant tumour)” value in data set [12] is 0. For the same compound, the “Hepatotoxicity (association with vascular disease)” value in [13] is reported as 0. In addition, the “Hepatotoxicity (time to onset)” value in data set [15] stood at 2 years. Moreover, the “Hepatotoxicity (successful reintroduction)” value in [16] was “yes”.

On to `C1CNCCN1` [PIPERAZINE], for which the “Hepatotoxicity (moderate)” value is reported as 0% in [1] (Liver) and 0 in [5]. In data set [2] (Liver), the “Hepatotoxicity (choleostasis)” value is given as 2. In addition, the “Hepatotoxicity (steatosis)” value in data set [3] is 0. The “Hepatotoxicity (cirrhosis)” value in data set [4] was determined as 0. Further, the “Hepatotoxicity (acute)” value in data set [6] worked out at 2; in data set [14] (Liver) it was 0%. Further, in data set [7] (Liver), the “Hepatotoxicity (granulomatous hepatitis)” value is 0. The “Hepatotoxicity (benign tumour)” value in [8] is reported as 0. The “Hepatotoxicity (chronic liver disease)” value in [9] turned out to be 0. In addition, the “Hepatotoxicity (cytolytic)” value in data set [10] (Liver) came out at 1. In [11] (Liver), the “Hepatotoxicity (severe hepatitis)” value is listed as 0. In addition, the “Hepatotoxicity (malignant tumour)” value in data set [12] came out at 0. Further, the “Hepatotoxicity (association with vascular disease)” value in data set [13] is 0. In data set [15], the “Hepatotoxicity (time to onset)” value is given as 3 weeks - 1 month. Moreover, the “Hepatotoxicity (successful reintroduction)” value in [16] is “yes”.

Consider `CCN(CC)CCCN(c1ccccc1)C1Cc2ccccc2C1` [APRINDINE], for which the “Hepatotoxicity (moderate)” value in [1] was determined as 1%; in data set [5], 1. Also, the “Hepatotoxicity (choleostasis)” value in data set [2] is 7. The “Hepatotoxicity (steatosis)” value in [3] is reported as 0. In addition, in [4], the “Hepatotoxicity (cirrhosis)” value was 0. Besides, the “Hepatotoxicity (acute)” value in [6] was found to be 9; in data set [14] it was 0.1%. In addition, the “Hepatotoxicity (granulomatous hepatitis)” value in data set [7] is given as 1. Moreover, in data set [8], the “Hepatotoxicity (benign tumour)” value came out at 0. Besides, the “Hepatotoxicity (chronic liver disease)” value in [9] is recorded as 0. Also, the “Hepatotoxicity (cytolytic)” value in data set [10] is listed as 4. Also, the “Hepatotoxicity (severe hepatitis)” value in data set [11] was 0. Further, in data set [12], the “Hepatotoxicity (malignant tumour)” value worked out at 0. In addition, the “Hepatotoxicity (association with vascular disease)” value in [13] is 0. In [15], the “Hepatotoxicity (time to onset)” value is on record as 5 days - 2 months. Also, the “Hepatotoxicity (successful reintroduction)” value in data set [16] is recorded as “yes”.

For `N[C@@H](C(=O)N[C@@H]1C(=O)N2C(C(=O)O)=C(Cl)CC[C@H]12)c1ccccc1` [LORACARBEF ANHYDROUS], the “Hepatotoxicity (moderate)” value in data set [1] is on record as 15%; in [5], 19. For the same compound, in data set [2], the “Hepatotoxicity (choleostasis)” value came out at 1. Further, the “Hepatotoxicity (steatosis)” value in [3] turned out to be 0. Also, in [4], the “Hepatotoxicity (cirrhosis)” value was 0. Further, the “Hepatotoxicity (acute)” value in data set [6] is reported as 1; in data set [14], 0%. Further, the “Hepatotoxicity (granulomatous hepatitis)” value in data set [7] amounted to 0. Besides, the “Hepatotoxicity (benign tumour)” value in data set [8] came out at 0. The “Hepatotoxicity (chronic liver disease)” value in data set [9] amounted to 0. Further, the “Hepatotoxicity (cytolytic)” value in data set [10] is 1. For the same compound, the “Hepatotoxicity (severe hepatitis)” value in [11] is given as 0. In addition, the “Hepatotoxicity (malignant tumour)” value in [12] is 0. Besides, the “Hepatotoxicity (association with vascular disease)” value in [13] is recorded as 0. Further, the “Hepatotoxicity (time to onset)” value in [15] is listed as 1 week - 6 weeks. Besides, the “Hepatotoxicity (successful reintroduction)” value in data set [16] is given as “yes”.

Take FILGRASTIM: the “Hepatotoxicity (moderate)” value is 75% in data set [1] and 7 in data set [5]. Also, the “Hepatotoxicity (choleostasis)” value in data set [2] came to 1. Besides, the “Hepatotoxicity (steatosis)” value in data set [3] is 0. In addition, in data set [4], the “Hepatotoxicity (cirrhosis)” value stood at 0. Besides, the “Hepatotoxicity (acute)” value in [6] turned out to be 2; in data set [14], 0%. Also, in [7], the “Hepatotoxicity (granulomatous hepatitis)” value is on record as 0. For the same compound, the “Hepatotoxicity (benign tumour)” value in data set [8] is reported as 0. In addition, the “Hepatotoxicity (chronic liver disease)” value in [9] is 0. In addition, in data set [10], the “Hepatotoxicity (cytolytic)” value stood at 2. In addition, the “Hepatotoxicity (severe hepatitis)” value in data set [11] worked out at 0. Further, the “Hepatotoxicity (malignant tumour)” value in [12] was 0. For the same compound, the “Hepatotoxicity (association with vascular disease)” value in [13] is reported as 0. Also, in data set [15], the “Hepatotoxicity (time to onset)” value was 3 days - 8 days. Moreover, the “Hepatotoxicity (successful reintroduction)” value in data set [16] was “yes”.

For `CC(NCCc1ccc(O)cc1)C(O)c1ccc(O)cc1` (stereo not drawn) [RITODRINE], the “Hepatotoxicity (moderate)” value came to 40% in data set [1] and 6 in data set [5]. The “Hepatotoxicity (choleostasis)” value in [2] is 1. Also, the “Hepatotoxicity (steatosis)” value in data set [3] was found to be 0. Further, in data set [4], the “Hepatotoxicity (cirrhosis)” value is recorded as 0. The “Hepatotoxicity (acute)” value in data set [6] was found to be 6; in data set [14], 0.9%. The “Hepatotoxicity (granulomatous hepatitis)” value in data set [7] was 0. Further, the “Hepatotoxicity (benign tumour)” value in data set [8] was 0. Besides, the “Hepatotoxicity (chronic liver disease)” value in data set [9] was 0. The “Hepatotoxicity (cytolytic)” value in data set [10] was found to be 6. Besides, in data set [11], the “Hepatotoxicity (severe hepatitis)” value is listed as 0. The “Hepatotoxicity (malignant tumour)” value in data set [12] is on record as 0. For the same compound, the “Hepatotoxicity (association with vascular disease)” value in data set [13] stood at 0. For the same compound, in data set [15], the “Hepatotoxicity (time to onset)” value came to 4 days - 9 weeks. Further, in data set [16], the “Hepatotoxicity (successful reintroduction)” value is listed as “yes”.
